# Data published in paper PMC9000710, “Synthesis and Hemostatic Activity of New Amide Derivatives” (Molecules, 2022).
# Entries after “also recorded” stand apart in the source; their conditions may differ. Where a name gives a salt, the structure may show the parent alone. Where a SMILES comes first, the peptide text is derived from it.
# Key:
# Format in all cases: biochemical
# human blood plasma [1] = assay: Activated partial thromboplastin time (aPTT) clotting assay; conditions: for aPTT, effect versus control in words: tested at 10, 25, 50 mg/L
# Description: (§1) Human blood plasma was isolated from fresh buffy coats (collected onto the citrate-dextrose solution—ACD) purchased from the Regional Centre of Blood Donation and Blood Treatment in Lodz, Poland. In the isolation procedure, the buffy coats (60 mL units) were divided into volumes of 10 mL and centrifuged (4000 rpm/15 min) in 15 mL tubes. Next, 1 mL solutions of each amide 1–8 were prepared in distilled water at concentrations of 10, 25, and 50 mg/L. Then, 450 μL of plasma and 50 μL of each amide at the tested concentrations were placed into 1.5 mL vials. The vials were vortexed (Vortex Biosan V-1 plus), incubated at 37 °C on a thermoblock (Dry Block Thermostat Biosan TDB-120), and analyzed using a Kselmed K-3002 OPTIC coagulometer (Grudziądz, Poland), based on the manufacturer’s protocols (described below). The control sample was native blood plasma, untreated with any of the examined substances.
# Fifty microliters of control plasma and plasma samples treated with the amides were transferred to measuring cuvettes and placed in the thermoblock module (37 °C) of the coagulometer (KSELMED, K-3002 Optic). Then, 50 μL of Dia-APTT reagent (DIAGON Kft. Hungary; cat. no. 72048) was added. The mixture was incubated for 180 s at 37 °C. Finally, 50 μL of reagent Dia-CaCl2 (DIAGON Kft. Hungary; cat. no. 41192) was added. Measurements were started immediately.
# human blood plasma [2] = assay: Prothrombin time (PT) clotting assay
# Description: as §1
# Fifty microliters of control plasma and plasma samples treated with the amides were transferred to measuring cuvettes and placed in the thermoblock module (37 °C) of a coagulometer (KSELMED, K-3002 Optic). Then, 100 μL of Dia-PT reagent (DIAGON Kft. Hungary; cat. no. 81100) was added. Measurements were started immediately.
# human blood plasma [3] = assay: Thrombin time (TT) clotting assay
# Description: as §1
# Both 100 μL of control plasma and plasma samples treated with the amides were transferred to measuring cuvettes, which were placed in the thermoblock module (37 °C) of the coagulometer (KSELMED K-3002 Optic). Then, 100 μL of thrombin solution (4.5 U/mL, in 0.9% NaCl; Biomed, Lublin, Poland) was added to the cuvette. Measurements were started immediately.
# human blood plasma [4] = assay: Clot formation and fibrinolysis (CFF) assay; conditions: for Amax (maximum of fibrin clot absorbance at 360 nm) / VmaxC (of Fibrin Polymerization) / VmaxF (of Fibrin Clot Lysis): control plasma assumed as 100%, mean ± SD, n = 5–7; for effect on fibrin polymerization (VmaxC) in words: tested at 10, 25, 50 mg/L
# Description: The CFF assay enables analysis of both the blood plasma coagulation process and fibrinolysis efficiency. The thrombin enzyme in the reagent mixture initiates blood plasma fibrinogen polymerization, leading to an increase in absorbance in the sample until the maximal absorbance (Amax) is attained. The fibrinolytic activity of blood plasma is induced by the tissue-type plasminogen activator (t-PA). The activation of fibrinolysis in the tested samples leads to fibrin clot degradation and decreases the absorbance to the baseline.
# Figure 11 An exemplary curve of blood plasma coagulation and clot lysis recorded during the clot formation and fibrinolysis (CFF) assay. The first step in the CFF test involves activation of the blood plasma coagulation cascade and fibrin clot formation (1). It is characterized by the maximal velocity of the fibrin polymerization parameter (VmaxC). The maximal absorbance (Amax) peak corresponds to the fibrin stabilization phase and is an indicator of fibrin clot thickness (2). The third step of the CFF assay covers the activation of fibrinolytic mechanisms and fibrin clot degradation (3) and is described by the maximal velocity of clot lysis (VmaxF).
# Thrombin was purchased from BioMed (Lublin, Poland). A tissue-type plasminogen activator (Actilyse®) was purchased from Boehringer Ingelheim, Ingelheim am Rhein, Germany. Kinetic measurements were executed using a SpectrostarNano microplate spectrophotometer (BMG LabTech, Ortenberg, Germany).
# Measurements were performed using a kinetic model, as described in our previous work. Briefly, blood plasma was preincubated with the examined substances (at final concentrations of 10, 25, and 50 mg/L) for 15 min at 37 °C. Then, 100 μL of blood plasma was added to microtiter plate wells, which was followed by 200 μL of the reagent mixture (0.75 U/mL thrombin, 225 ng/mL t-PA and 7.5 mM CaCl2) suspended in tris-buffered saline (0.05 M TBS, 0.9% NaCl; pH 7.4). Measurements of absorbance changes were started immediately and continued for 60 min at 37 °C, λ = 360 nm. The following parameters were used to determine the effects of the examined substances on the coagulation and fibrinolytic properties of the blood plasma: the maximal velocity of fibrinogen polymerization (VmaxC), which is an indicator of the plasma coagulation efficiency; the maximal absorbance (Amax), which is an indicator of the fibrin clot stabilization and its thickness; the maximal velocity of clot lysis (VmaxF), which is an indicator of blood plasma fibrinolytic activity.
SMILES,Amax (maximum of fibrin clot absorbance at 360 nm) (human blood plasma [4]; 10 mg/L) [%],VmaxC (of Fibrin Polymerization) (human blood plasma [4]; 10 mg/L) [%],VmaxF (of Fibrin Clot Lysis) (human blood plasma [4]; 10 mg/L),Amax (maximum of fibrin clot absorbance at 360 nm) (human blood plasma [4]; 25 mg/L) [%],VmaxC (of Fibrin Polymerization) (human blood plasma [4]; 25 mg/L) [%],VmaxF (of Fibrin Clot Lysis) (human blood plasma [4]; 25 mg/L),Amax (maximum of fibrin clot absorbance at 360 nm) (human blood plasma [4]; 50 mg/L) [%],VmaxC (of Fibrin Polymerization) (human blood plasma [4]; 50 mg/L) [%],VmaxF (of Fibrin Clot Lysis) (human blood plasma [4]; 50 mg/L),effect on fibrin polymerization (VmaxC) in words (human blood plasma [4]),also measured
"NCC(=O)NCC(=O)O [Amide 5, Glycylglycine hydrochloride] (H-Gly-Gly-OH)",106.44 ± 1.78,105.80 ± 2.97,90.08 ± 13.68%,107.12 ± 4.65,105.88 ± 3.76,85.12 ± 16.98 %,113.43 ± 7.86,109.83 ± 1.46,89.46 ± 10.48 %,Mild pro-coagulant effects,"aPTT Time [% of Control] (human blood plasma [1]; c 10 mg/L): 98.8 ± 5.8 % of Control; aPTT Time [% of Control] (human blood plasma [1]; c 25 mg/L): 101.1 ± 4.9 % of Control; aPTT Time [% of Control] (human blood plasma [1]; c 50 mg/L): 100.8 ± 2.6 % of Control; PT Time [% of Control] (human blood plasma [2]; c 10 mg/L): 95.0 ± 10.5 % of Control; PT Time [% of Control] (human blood plasma [2]; c 25 mg/L): 92.0 ± 8.5 % of Control; PT Time [% of Control] (human blood plasma [2]; c 50 mg/L): 93.0 ± 8.3 % of Control; TT Time [% of Control] (human blood plasma [3]; c 10 mg/L): 99.1 ± 6.1 % of Control; TT Time [% of Control] (human blood plasma [3]; c 25 mg/L): 99.0 ± 4.7 % of Control; TT Time [% of Control] (human blood plasma [3]; c 50 mg/L): 97.8 ± 3.3 % of Control; procoagulant activity judged from VmaxC and Amax, in words (human blood plasma [4]; among the tested compounds): most evident procoagulant activity; Amax parameter, effect in words (human blood plasma [4]; full range of tested concentrations (10–50 µg/mL)): significantly higher"
"NC[C@H]1CC[C@H](C(=O)O)CC1 [TA, trans-4-(aminomethyl)cyclohexane carboxylic acid, reference compound]",106.67 ± 3.79,101.38 ± 7.89,total inhibition,105.87 ± 6.23,104.75 ± 9.98,total inhibition,106.64 ± 4.65,104.85 ± 12.06,total inhibition,did not influence,"aPTT, effect versus control in words (human blood plasma [1]): significantly decreased; aPTT, effect versus control in words (human blood plasma [1]; listed as tranexamic acid): slightly shortened; prothrombin time, effect versus control in words (human blood plasma [2]; concentration not specified (10, 25, 50 mg/L tested), listed as tranexamic acid): slightly shortened; also recorded: slightly but statistically significantly reduced; prothrombin time, effect versus control in words (human blood plasma [2]; two lower concentrations (10 and 25 mg/L)): decreased; TT, effect versus control in words (human blood plasma [3]; all used concentrations (10, 25, 50 mg/L)): no effects"
